Laboratory results: PubChem BioAssay AID1919009 (Molecular Pharmacology Branch, DTP, NCI, 2023)
pIC50: −log10 of the molar value. Values joined by “and” are separate entries in the source; they are usually repeats but may differ in a detail not shown here. Equal entries are not always repeated.

Tested on: K24384-001-R-PDC complex spheroid growth
Assay: Anticancer human tumor K24384-001-R-PDC patient-derived pancreatic adenocarcinoma cell line growth inhibition [AhR]
Conditions: for viability, T/C: stronger effect = lower value
Description: Multicellular complex tumor spheroid response to aryl hydrocarbon receptor antagonists in combination with a variety of drugs and investigational agents in selected tumor cell lines
The current study was undertaken to assess response to aryl hydrocarbon receptor antagonists in combination with standard-of-care drugs and investigational agents in solid tumor complex spheroid models. Complex spheroids include a stromal component modeled by human endothelial cells (HUVEC) and fibroblasts modeled by human mesenchymal stem cells (MSCs). The concentration ranges selected for each drug and investigational agent were based upon clinically achievable concentrations if the clinical Cmax of the agent was known.
Compounds. The drugs and investigational agents: BAY 2416964 (NSC825713), GNF351 (NSC835774), CH-223191 (NSC835775), CPI-455 (NSC825282), aza-TdCyd (NSC777586), decitabine (NSC127716), belinostat (NSC758774), entinostat (NSC756642), pevonedistat (NSC761192), tazemetostat (NSC777109), talazoparib (NSC765396), olaparib (NSC753686), selinexor (NSC780203), nedisertib (M3814, NSC802822), bortezomib (NSC756655), venetoclax (NSC766270), doxorubicin (NSC123127), elimusertib (BAY189344, NSC800525), ceralasertib (AZD6738, NSC777638), TAK-243 (NSC785004), alisertib (NSC759677), etoposide (NSC141540), topotecan (NSC609699), eribulin (NSC707389), gemcitabine (NSC613327), carboplatin (NSC241240), cisplatin (NSC119875), and SN-38 (NSC673596) were obtained from the National Cancer Institute (NCI) Developmental Therapeutics Program Chemical Repository (32). The FDA-approved anticancer drug set is available from the Developmental Therapeutics Program at https://dtp.cancer.gov/organization/dscb/obtaining/available plates.htm. […] The stock solutions were prepared in dimethyl sulfoxide (DMSO, Sigma-Aldrich, St. Louis, MO, cat. D2650), except for the platinum compounds which were prepared in saline (Quality Biological, Gaithersburg, MD, cat. 114-055-101), at 800-fold the tested concentration and stored at -70 degrees C prior to their use. All drugs and investigational agents were tested over a range starting from a high concentration at or near the clinical Cmax and decreasing in half-log increments. If the clinical Cmax for an agent had not been determined, the highest concentration tested was 10 microM (Table 1).
Cell Culture. All cells were maintained in an incubator at 37 degrees C and 5% CO2 with 95% humidity. The PDC lines were cultured according to standard operating procedures established by the NCI PDMR (https://pdmr.cancer.gov). Briefly, all PDCs were thawed and cultured in Matrigel-coated flasks prepared with a working solution of 1X Ham's F-12 nutrient mix, without supplementation (Invitrogen, Waltham, MA, cat. 11765054), 100 U/mL penicillin-streptomycin (Invitrogen, cat. 15140122), and 2.5% Matrigel (Corning Inc., Corning, NY, cat. 354248) for the first three passages. All PDCs were cultured in complete DMEM/F-12 media containing advanced DMEM/F-12 (Invitrogen, cat. 12634028), 4.9% defined fetal bovine serum, heat inactivated (HyClone Laboratories Inc., Logan, UT, cat. SH30070.03HI), 389 ng/mL hydrocortisone (Sigma-Aldrich, cat. H4001), 9.7 ng/mL human EGF recombinant protein (Invitrogen, cat. PHG0313), 23.4 microg/mL adenine (Sigma-Aldrich, cat. A2786), 97.3 U/mL penicillin-streptomycin (Invitrogen, cat. 15140122), 1.9 mM L-glutamine (Invitrogen, cat. 25030081), and 9.7 microM Y-27632 dihydrochloride (Tocris Bioscience, Bristol, United Kingdom, cat. 1254). The PDCs were cultured in complete DMEM/F12 media without 10 microM Y-27632 dihydrochloride for at least two passages prior to the screen. The established cell lines NCI-H1341 and […] were cultured in DMEM/F-12, HEPES (Invitrogen, cat. 11330032), 5% defined fetal bovine serum (HyClone Laboratories Inc., cat. SH30070.03), ITS premix universal culture supplement [insulin (5 microg/mL), transferrin (5 microg/mL), and selenious acid (5 ng/mL)] […]

[1] = curve of first compound, second compound 0.1 µM
[2] = curve of first compound, second compound 0.316 µM
[3] = curve of first compound, second compound 1 µM
[4] = curve of first compound, second compound 3.16 µM
[5] = curve of first compound, second compound 10 µM
[6] = second compound 0.1 µM, first compound 0.0316 µM
[7] = second compound 0.1 µM, first compound 0.1 µM
[8] = second compound 0.1 µM, first compound 0.316 µM
[9] = second compound 0.1 µM, first compound 1 µM
[10] = second compound 0.1 µM, first compound 3.16 µM
[11] = second compound 0.1 µM, first compound 10 µM
[12] = second compound 0.316 µM, first compound 0.0316 µM
[13] = second compound 0.316 µM, first compound 0.1 µM
[14] = second compound 0.316 µM, first compound 0.316 µM
[15] = second compound 0.316 µM, first compound 1 µM
[16] = second compound 0.316 µM, first compound 3.16 µM
[17] = second compound 0.316 µM, first compound 10 µM
[18] = second compound 1 µM, first compound 0.0316 µM
[19] = second compound 1 µM, first compound 0.1 µM
[20] = second compound 1 µM, first compound 0.316 µM
[21] = second compound 1 µM, first compound 1 µM
[22] = second compound 1 µM, first compound 3.16 µM
[23] = second compound 1 µM, first compound 10 µM
[24] = second compound 3.16 µM, first compound 0.0316 µM
[25] = second compound 3.16 µM, first compound 0.1 µM
[26] = second compound 3.16 µM, first compound 0.316 µM
[27] = second compound 3.16 µM, first compound 1 µM
[28] = second compound 3.16 µM, first compound 3.16 µM
[29] = second compound 3.16 µM, first compound 10 µM
[30] = second compound 10 µM, first compound 0.0316 µM
[31] = second compound 10 µM, first compound 0.1 µM
[32] = second compound 10 µM, first compound 0.316 µM
[33] = second compound 10 µM, first compound 1 µM
[34] = second compound 10 µM, first compound 3.16 µM
[35] = second compound 10 µM, first compound 10 µM
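Throughout, for viability, T/C: percent of DMSO vehicle-treated spheroid viability set as 100%.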

Row | Structure (SMILES) | pIC50 [1] | pIC50 [2] | pIC50 [3] | pIC50 [4] | pIC50 [5] | viability, T/C [6] | viability, T/C [7] | viability, T/C [8] | viability, T/C [9] | viability, T/C [10] | viability, T/C [11] | viability, T/C [12] | viability, T/C [13] | viability, T/C [14] | viability, T/C [15] | viability, T/C [16] | viability, T/C [17] | viability, T/C [18] | viability, T/C [19] | viability, T/C [20] | other results
1 | Nc1ccccc1NC(=O)c1ccc(CNC(=O)OCc2cccnc2)cc1 | – | – | – | – | – | – | – | – | – | – | – | – | – | – | – | – | – | – | – | – | viability, T/C (compound 0.0316 µM): 94% and 112% and 106%; viability, T/C (compound 0.1 µM): 98% and 108% and 107%; viability, T/C (compound 0.316 µM): 85% and 93.4% and 96.5%; viability, T/C (compound 1 µM): 78.2% and 67.5% and 60.9%; viability, T/C (compound 3.16 µM): 43.8% and 43.9% and 45.6%; viability, T/C (compound 10 µM): 8.72% and 6.99% and 9.95%; pIC50 (curve of compound): 5.59 and 5.64 and 5.67
2 | COc1cc(C2c3cc4c(cc3C(OC3OC5COC(C)OC5C(O)C3O)C3COC(=O)C23)OCO4)cc(OC)c1O (configuration not stated) + Cc1ccccc1N=Nc1ccc(NC(=O)c2ccnn2C)c(C)c1 | 6.02 | 5.96 | 6.08 | 6.01 | 5.56 | 97.7% | 96.3% | 77.9% | 49.6% | 35.2% | 35.6% | 104% | 92.5% | 66.3% | 55.2% | 36.5% | 38.7% | 102% | 101% | 83.1% | viability, T/C [21]: 43.6%; viability, T/C [22]: 33.9%; viability, T/C [23]: 31.7%; viability, T/C [24]: 78.3%; viability, T/C [25]: 89.1%; viability, T/C [26]: 64.4%; viability, T/C [27]: 51.6%; viability, T/C [28]: 39.7%; viability, T/C [29]: 35.5%; viability, T/C [30]: 102%; viability, T/C [31]: 98.5%; viability, T/C [32]: 88.6%; viability, T/C [33]: 63.9%; viability, T/C [34]: 46.2%; viability, T/C [35]: 46.4%
3 | COc1cc(C2c3cc4c(cc3C(OC3OC5COC(C)OC5C(O)C3O)C3COC(=O)C23)OCO4)cc(OC)c1O (configuration not stated) + CC(CO)NC(=O)c1cc(-c2ccc(Cl)cc2)nn(-c2cnn(C)c2)c1=O | 5.77 | 6.04 | 5.93 | 6.12 | 6.21 | 96.8% | 102% | 75.9% | 60.8% | 39.8% | 33.5% | 89.5% | 93.4% | 78.1% | 48.4% | 30% | 28.5% | 95.9% | 96.4% | 78.1% | viability, T/C [21]: 52.7%; viability, T/C [22]: 36%; viability, T/C [23]: 30.8%; viability, T/C [24]: 74.6%; viability, T/C [25]: 82.4%; viability, T/C [26]: 80.4%; viability, T/C [27]: 41.2%; viability, T/C [28]: 33.4%; viability, T/C [29]: 29.6%; viability, T/C [30]: 70.8%; viability, T/C [31]: 72.9%; viability, T/C [32]: 57.2%; viability, T/C [33]: 44.7%; viability, T/C [34]: 34.1%; viability, T/C [35]: 33.7%
4 | O=C(C=Cc1cccc(S(=O)(=O)Nc2ccccc2)c1)NO + Cc1cncc(-c2nc(NCCc3c[nH]c4ccccc34)c3ncn(C(C)C)c3n2)c1 | 5.74 | 5.68 | 5.63 | 5.63 | > 7.50 | 107% | 120% | 108% | 74.5% | 28.2% | 4.88% | 139% | 138% | 135% | 87.9% | 30.3% | 4.55% | 129% | 141% | 145% | viability, T/C [21]: 85.6%; viability, T/C [22]: 41.1%; viability, T/C [23]: 5.39%; viability, T/C [24]: 118%; viability, T/C [25]: 118%; viability, T/C [26]: 111%; viability, T/C [27]: 75.2%; viability, T/C [28]: 41.9%; viability, T/C [29]: 6.54%; viability, T/C [30]: 28.9%; viability, T/C [31]: 20.4%; viability, T/C [32]: 17.7%; viability, T/C [33]: 9.39%; viability, T/C [34]: 10.3%; viability, T/C [35]: 2.79%
